Patent US20160346389A1, “MODIFIED PARAMAGNETIC NANOPARTICLES FOR TARGETED DELIVERY OF THERAPEUTICS AND METHODS THEREOF” (ALBERT EINSTEIN COLLEGE OF MEDICINE INC., priority 2013, published 2016)
Blank lines part the entries; values can stand above or below the molecule they belong to.

What was measured:
[1] = test system: human breast cancer xenographs; test: MRI of magnetic field induced localization of PMNPs in breast cancer xenograft mice; assay type: in vivo, mouse
Experimental: FIGS. 3(A-D). […] By applying a magnet field for 30 minutes at hind end (blue arrows), the enhanced image of hind-end tumor is observed (3B). The enhanced image of the tumor persists for at least several hours. […] The PMNPs are concentrated at site of a lower abdominal mammary tumor (FIG. 3C) using an external magnetic field placed over the tumor for 30 minutes. […] Imaging was performed over several hours without taking the mouse out of MRI machine thereby maintaining all of the imaging parameters.
FIGS. 4(A-B). Compares the MRI contrast data between […] and gadolinium oxide-based PMNPs.
In FIG. 3 are presented results on magnetic immobilization of gadolinium-based PMNPs in a mouse with numerous human breast cancer xenographs. There is no image enhancement for any of the multiple tumors located in different parts of the mouse including one at hind end (green-arrow at bottom of the picture marked tumor). The mouse was then removed and then subjected to thirty minutes of having a magnetic field placed over the tumor demarked by the green arrow. […] The intensity of MRI signal is very similar at both tumor and bladder. This is very different than observed in case of […] where there is a transient image of the bladder and no site specific localization of the contrast agent in any one of the tumors. […]

[2] = test system: MoB-1833 mammary xenografted tumor; test: ADM-PMNP plus magnetic field on xenografted human breast cancer, bioluminescence; assay type: in vivo, mouse; settings: comparable amount of free drug
Experimental: FIG. 8 Anti-tumor effect of IV infused Adriamycin loaded PMNP (ADM-PMNP) plus magnetic field treatment on xenografted human breast cancer. Human breast cancer was s.c. xenografted in a female nude mouse. The mouse was injected with 1 mg/kg ADM-PMNP and the tumor was treated with magnetic field for 30 minutes following each injection The mouse was imaged before and after the treatment, the luminescent signals were quantitatively analyzed for change of tumor size. At the end of the treatment, there was a >80% decrease of luminescent signaling in the tumor. The signal recovered partially 3 days after the treatment was ended.
Signal intensity in treated tumor was similar to that in bladder, a major route of PMNP elimination. Next, to assess drug delivery and anti-tumor efficacy, MoB-1833 mammary xenografted tumor-bearing mice were infused with ADM-coated PMNP (ADM-PMNP). ADM use in chemotherapy is limited due to systemic toxicity and it is therefore an excellent model drug for evaluation of the potentially utility of our PMNP platform. […] This ADM dose is 5-20 times lower than doses of free ADM commonly used for in animal studies and similar to doses used clinically. The 4-day treatment achieved a 9-fold reduction in tumor mass (FIG. 8). Tumor rebound upon drug termination confirmed specificity of the drug effect. […] The necrosis was confirmed histologically (FIG. 9Bd-f). […]

[3] = test system: human breast cancer line, MDA-MB-436; test: Tumor necrosis in xenografted human breast cancer; assay type: in vivo, mice; settings: 1.0 mg/kg
[4] = Histopathological analysis of multiple tissues (toxicity); assay type: in vivo, mice; settings: same dose (1 mg/kg BW)
Experimental: FIGS. 11(A-B). Systemic effect of the treatment. (A) Representative H&E staining of tissue sections from ADM-PMNP injected mice (1 mg/kg BW)(A). (B) inflammation and hyperplasia were found in colon from mice treated with free ADM (B-left) but not in mice injected with the same dose of ADM-PMNP (B-right).

[5] = test system: U87 human glioblastoma cells; test: Cell viability assay, Presto Blue, 48 h; assay type: cell-based
Experimental: FIG. 22 Cytotoxicity of naked curcumin, curcumin conjugated PMNPs and Sol-Gel Nps and blanks (without curcumin) performed on U87 human glioblastoma cells after 48 hours of incubation. Note that 1 μM equivalent curcumin concentration corresponds to 16.7 μg/mL of nanoparticles. […] The data represents the mean±SE, n=3 to 18.
Cells were plated in 24-well trays and allowed to become confluent then incubated with naked curcumin or different curcumin NP concentrations for 48 h. Cell viability was quantified using Presto Blue (Invitrogen) an assay that contains a cell permeable resazurin-based solution that is modified by the reducing environment of the viable cell becoming highly fluorescent. Using a plate reader, cell viability was quantified after 0.5-1 hours of incubation with Presto Blue. All measurements were always accompanied by control wells and by calibration wells to account for background fluorescence using the same culture media and the same NP concentrations without the cells.

[6] = Radiation protection by localized melanin; assay type: in vivo, rat; settings: earlier studies
Text: The same protocol used for curcumin also works for melanin resulting in melanin loaded OA-PMNPs. These particles have potential use as radioprotectants. The melanin loaded OA-PMNPs would be infused into the patient and then magnetically localized in healthy tissue surrounding the diseased tissue targeted for radiation treatment. […] Additionally melanin loaded PMNP can be used as targeted contrast agent for photo-acoustic based imaging.

persistence of MRI contrast ([1]; FIG. 4): short lived
distribution of contrast agent by MRI ([1]; within a short time, no magnetic field): concentrates in the bladder
Molecule: CNC[C@H](O)[C@@H](O)[C@H](O)[C@H](O)CO.CNC[C@H](O)[C@@H](O)[C@H](O)[C@H](O)CO.O=C([O-])CN(CCN(CC(=O)[O-])CC(=O)O)CCN(CC(=O)[O-])CC(=O)O.[Gd+3]

Molecule: COc1cccc2c1C(=O)c1c(O)c3c(c(O)c1C2=O)C[C@@](O)(C(=O)CO)C[C@@H]3O[C@H]1C[C@H](N)[C@H](O)[C@H](C)O1 [Adriamycin, doxorubicin]
anti-tumor effect [2]: relatively ineffective
tumor necrosis [3]: smaller necrotic lesions
colon histology [4]: colonic inflammation and hyperplasia

Molecule: COc1cc(/C=C/C(=O)CC(=O)/C=C/c2ccc(O)c(OC)c2)ccc1O [Curcumin]
equivalent Curcumin concentration that decreases cell viability by 20% [5]: 5 µM

Molecule: melanin
radiation damage in irradiated legs [6]: prevent radiation damage
